Tests used:
Assay type in all cases: cell-based, human
DU145 cells = experiment: Cell cycle analysis, propidium iodide flow cytometry, DU145; conditions: DU145, 10 μM Pt(IV)-4C or 2.5 μM Pt(IV)-5C for 1 hour, analyzed 12 hours post treatment
Method: FIG. 10 is a series of plots from a cell cycle analysis of A549 cells (top) and DU145 cells (bottom) cells treated with Pt(IV)-4C and Pt(IV)-5C. A549 cells were treated for 5 hours with control (left), 25 μM Pt(IV)-4C (center), or 7.5 μM Pt(IV)-5C (right), and analyzed 12 hours post treatment. DU145 cells were treated for 1 hour with control (left), 10 μM Pt(IV)-4C (center), or 2.5 μM Pt(IV)-5C (right), and analyzed 12 hours post treatment. Data are representative of three independent experiments.
Cells (˜50 to 60% confluent in 60 mm dishes) were treated as indicated with the platinum compound. After treatment, the floating cells were collected, and both attached and floating cells were washed 2× with PBS. The cells were resuspended in fresh medium and incubated as indicated. The cells were harvested (both the floating and attached cells were collected), counted, and pelleted. The cells were then washed two times with 5 mL PBS, fixed by resuspending in 0.1 mL of PBS and 1 mL of ice-cold 95% ethanol with gentle vortexing. Fixed cells were stored at 4° C. until analysis. For analysis, fixed cells were washed once with 1-2 mL of PBS and centrifuged at 500×g for 5 minutes. The cell pellet was resuspended in 100 μL of a 1.0% Triton X-100 buffer solution, and 100 μL of a 1.0 mg/mL RNAse solution was added and allowed to stand at room temperature for 10-15 minutes. […]

A549 cells [1] = experiment: Annexin V/PI flow cytometry, A549; conditions: A549, 25 μM Pt(IV)-4C or 10 μM Pt(IV)-5C for 5 hours, analyzed 12 hours post treatment
Method: FIG. 11 is a series of graphs showing flow cytometry analysis of Annexin V/PI staining in A549 cells (top) and DU145 cells (bottom) treated with Pt(IV)-4C and Pt(IV)-5C. A549 cells were treated for 5 hours with control (left), 25 μM Pt(IV)-4C (center), or 10 μM Pt(IV)-5C (right), and analyzed 12 hours post treatment. DU145 cells were treated for 1 hour with control (left), 10 μM Pt(IV)-4C (center), or 2.5 μM Pt(IV)-5C (right) and analyzed 12 hours post treatment. Q1=PI+, represents necrotic cells; Q2=Annexin V/PI+, representing late apoptotic/necrotic cells; Q3=Annexin V+, representing early apoptotic cells; Q4=AnnexinV/PI−, representing live cells. Data are representative of three independent experiments.
Cells (˜50 to 60% confluent in 60 mm dishes) were treated as indicated with the platinum compound. After treatment, the floating cells were collected, and both attached and floating cells were washed 2× with PBS. The cells were resuspended in fresh medium and incubated as indicated. The cells were harvested (both the floating and attached cells were collected), counted, and pelleted. The cells were then washed two times with 5 mL of Ca^2+ and Mg^2+ free PBS. The pellets were then washed in 2.0 mL of 1× Annexin-V Binding buffer (BD Bioscience, San Jose, CAS) and centrifuged at 500×g for 5 minutes. […] A quantitative measure of these event shifts was accomplished by gating. […]

A549 cells [2] = experiment: Hoechst/PI staining, confocal microscopy, A549
Method: Cells (100,000 to 125,000) were seeded into 35 mm dishes and incubated for 48 hours at 37° C. The cells were treated with control, Pt(IV)-4C, or Pt(IV)-5C, and while in the dark, the cells were washed 2× with 1 mL PBS. After washing, 1 mL of a 2 μg/mL Hoechst 33342 and 10 μg/mL PI solution (in PBS) was added, and the cells were incubated for 15 minutes at room temperature. Images were acquired within 5 minutes with a Nikon A1R confocal laser scanning microscopy system (CLSM) mounted on a Nikon Eclipse Ti. At least three random areas on each dish were imaged.
Analysis of Hoechst (Ho) and PI staining by confocal microscopy also was performed to detect cell death. PI stains cells with membrane damage, whereas Ho stains both live and apoptotic cells (although apoptotic cells have more intense Ho fluorescence). […] Additionally, unlike A549, the PI positive cells in Pt(IV)-4C treated cells were higher than Pt(IV)-5C treated cells.

| Molecule | effect on the cell cycle / sub-G1 peak (DU145 cells) | Annexin V/PI staining (apoptosis) (A549 cells [1]) | Hoechst (Ho) fluorescence compared to control (A549 cells [2]) | PI fluorescence compared to control (A549 cells [2]) |
| --- | --- | --- | --- | --- |
| CC(=O)[O][Pt]([Cl])([Cl])[O]C(C)=O.CCCCCOc1ccnc(-c2cc(OCCCCC)ccn2)c1 [Pt(IV)-5C, [Pt(IV)Cl2(OAc)2(4,4′-dipentoxy-2,2′-bipyridine)]] | did not affect the cell cycle | induce apoptosis | increased Ho fluorescence | no difference |
| [Pt(IV)Cl2(OAc)2(4,4′-dibutoxy-2,2′-bipyridine)] [Pt(IV)-4C] | did not affect the cell cycle | induce apoptosis | increased Ho fluorescence | increased PI positive cells |
